Where two headings read alike, the source gives them in different places.
Tests used:
[1] = test system: H292 human non-small cell lung carcinoma cell line; conditions: H292 cells in culture; single agent or combination
Description: The basis of the assay is a luminescent quantitation of ATP present in a cell culture plate well. In essence, the greater the number of viable cells in the well, the greater the level of ATP present. […] Results were calculated as a fraction of the DMSO controlled cells.

[2] = test system: H292 human non-small cell lung carcinoma cell line; conditions: H292 cells in culture; single agent or combination; remark: listed apart in the source
Description: To monitor cell apoptosis, DNA fragmentation was measured by using a commercially available kit from Roche. Cells were plated in 90 ul of 10% serum-containing growth media at a density of 5000 cells/well in a 96-well culture plate. On day 2, cells were treated with 10 ul of 10× concentrations of drugs or DMSO alone for a final well volume of 100 ul. After 48 h treatment with the drugs, the cells were assayed for DNA fragmentation according to the manufacture instructions. Results were calculated as fold of induction of DNA fragmentation of the DMSO controlled cells.

[3] = test system: colorectal cancer; conditions: cited from earlier work

For C#Cc1cccc(Nc2ncnc3cc(OCCOC)c(OCCOC)cc23)c1 [TARCEVA™, [6,7-bis(2-methoxyethoxy)-4-quinazolin-4-yl]-(3-ethynylphenyl)amine], the “inhibition of cell proliferation” value [1] was “inhibited cell proliferation” and the induction of apoptosis [2] was “induced apoptosis”.

For O=c1[nH]cc(F)c(=O)[nH]1 [5-fluorouracil], the response rates ([3]; single-agent treatment for advanced colorectal cancer) is given as “about 10%”.

In the case of O=C1[O][Pt]2([NH][C@@H]3CCCC[C@H]3[NH]2)[O]C1=O [oxaliplatin], the response rates ([3]; combined with 5-FU and leucovorin, first-line treatment for colorectal cancer) is given as 25-40%.
